Test results taken from patent publication US20240246918A1, “COMPOUNDS AND COMPOSITIONS AS EIF4E INHIBITORS AND THE USES THEREOF” (Ribometrix, Inc., priority 2022, published 2024).
Where two headings read alike, the source gives them in different places.

Columns and labels:
[1] = tested on: COLO 205 colorectal tumor cells; assay: Tumor cell viability inhibition assay (CellTiter-Glo 2.0, 72 hours); format: cell-based; settings: COLO 205 cell viability
Summary of the method: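 IC50 derived by 4-parameter fitting after normalizing luminescence to DMSO and max-inhibition wells. Compounds tested as 11 concentrations in 4-fold steps on COLO 205 cells seeded at 1500 per well in RPMI-1640/10% FBS; ATP content measured with CellTiter-Glo 2.0 after 72 h.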

human eIF4E protein = target: T1, human eIF4E protein (Homo sapiens, UniProt P06730); assay: Biochemical competitive binding assay (TR-FRET competition, EDA-m7GDP-ATTO-647N probe); settings: read-out: hEIF4E TR-FRET IC50
T1 construct: purchased Novus NBP-45314
T1 sequence (P06730 whole entry): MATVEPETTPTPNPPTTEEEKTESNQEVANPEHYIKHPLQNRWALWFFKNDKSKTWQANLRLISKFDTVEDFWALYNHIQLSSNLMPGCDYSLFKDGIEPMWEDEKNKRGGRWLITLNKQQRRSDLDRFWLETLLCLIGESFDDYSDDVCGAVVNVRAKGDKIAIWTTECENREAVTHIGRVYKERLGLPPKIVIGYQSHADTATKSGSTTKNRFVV
Summary of the method: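 IC50 values come from 4-parameter fits of the normalized 665/620 nm TR-FRET ratio. Compound was first incubated 15 min with 4 nM recombinant His-eIF4E bound to 2.5 nM Eu-anti-His antibody, then 15 min with 5 nM m7GDP-ATTO-647N tracer, in pH 7.5 HEPES buffer with 100 mM KCl, Tween-20 and BSA.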

[2] = tested on: cap-dependent translation in Flp-In-293 reporter cells; assay: Cellular cap-dependent translation inhibition assay (dual luciferase assay, DLA; Fluc/Rluc ratio, 24 hours); format: cell-based; settings: read-out: DLA 205 IC50, dual luciferase assay, Flp-In-293 reporter cells, 24 hours, Fluc/Rluc ratio

IC50 (human eIF4E protein) [µM] | IC50 ([1]; Homo sapiens, COLO 205, 72 h) [µM] | Structure (SMILES) | further results
< 0.1 |  | Cc1nc2c(c(=O)n1CCOc1ccc(Cl)cc1-c1cccc(C(=O)O)c1)CC(N(C)C)CC2 (single isomer, unassigned) [Compound 24] | IC50 [1]: 5 to 20 µM; IC50 ([2]; Homo sapiens, Flp-In-293, 24 h): < 1 µM
< 0.1 | < 5 | Cc1cc(-c2cc(Cl)ccc2OCCn2c(C)nc3c(c2=O)C[C@@H](N2CCCC[C@H]2c2cccc(F)c2)CC32CC2)c2scc(C(=O)O)c2n1 (single isomer, unassigned) [Compound 628, 7-(5-chloro-2-(2-(6′-(2-(3-fluorophenyl)piperidin-1-yl)-2′-methyl-4′-oxo-6′,7′-dihydro-4′H-spiro[cyclopropane-1,8′-quinazolin]-3′(5′H)-yl)ethoxy)phenyl)-5-methylthieno[3,2-b]pyridine-3-carboxylic acid] | 
0.5 to 5 | 5 to 20 | Cc1cc(-c2cc(Cl)ccc2OCCn2c(C)nc3c(c2=O)C[C@@H](N2CCCC[C@@H]2c2cccc(F)c2)CC32CC2)c2scc(C(=O)O)c2n1 (single isomer, unassigned) [Compound 629, 7-(5-chloro-2-(2-(6′-(2-(3-fluorophenyl)piperidin-1-yl)-2′-methyl-4′-oxo-6′,7′-dihydro-4′H-spiro[cyclopropane-1,8′-quinazolin]-3′(5′H)-yl)ethoxy)phenyl)-5-methylthieno[3,2-b]pyridine-3-carboxylic acid] | 
< 0.1 | 5 to 20 | Cc1cc(-c2cc(Cl)ccc2OCCn2c(C)nc3c(c2=O)C[C@@H](N2CCCC[C@H]2C(F)(F)F)CC32CC2)c2scc(C(=O)O)c2n1 (single isomer, unassigned) [Compound 630] | 
0.5 to 5 |  | Cc1cc(-c2cc(Cl)ccc2OCCn2c(C(F)(F)F)nc3c(c2=O)CC(N2CCC(OC(F)(F)F)CC2)CC3)c2scc(C(=O)O)c2n1 (single isomer, unassigned) [Compound 631] | IC50 [1]: > 20 µM
< 0.1 | < 5 | Cc1cc(-c2cc(Cl)ccc2OCCn2c(C)nc3c(c2=O)CC(N2CCC4(CC2)CC4(F)F)CC32CC2)c2scc(C(=O)NS(C)(=O)=O)c2n1 (single isomer, unassigned) [Compound 632] | 
< 0.1 | 5 to 20 | Cc1cc(-c2cc(Cl)ccc2OCCn2c(C)nc3c(c2=O)C[C@H](N2CCCC[C@H]2C(F)(F)F)CC32CC2)c2scc(C(=O)O)c2n1 (single isomer, unassigned) [Compound 633] | 
0.1 to 0.5 | > 20 | Cc1cc(-c2cc(Cl)ccc2OCCn2c(C)nc3c(c2=O)C[C@H](N2CCCC[C@@H]2c2cccc(F)c2)CC32CC2)c2scc(C(=O)O)c2n1 (single isomer, unassigned) [Compound 634, 7-(5-chloro-2-(2-(6′-(2-(3-fluorophenyl)piperidin-1-yl)-2′-methyl-4′-oxo-6′,7′-dihydro-4′H-spiro[cyclopropane-1,8′-quinazolin]-3′(5′H)-yl)ethoxy)phenyl)-5-methylthieno[3,2-b]pyridine-3-carboxylic acid] | 
< 0.1 | 5 to 20 | COC1CCN([C@H]2CCc3nc(C)n(CCOc4ccc(Cl)cc4-c4cc(C)nc5c(C(=O)O)csc45)c(=O)c3[C@H]2C)CC1 (stereo in doubt) [Compound 102, 7-(5-chloro-2-(2-(6-(4-methoxypiperidin-1-yl)-2,5-dimethyl-4-oxo-5,6,7,8-tetrahydroquinazolin-3(4H)-yl)ethoxy)phenyl)-5-methylthieno[3,2-b]pyridine-3-carboxylic acid] | 
< 0.1 | 5 to 20 | COC1CCN([C@@H]2CCc3nc(C)n(CCOc4ccc(Cl)cc4-c4cc(C)nc5c(C(=O)O)csc45)c(=O)c3[C@@H]2C)CC1 (stereo in doubt) [Compound 103, 7-(5-chloro-2-(2-(6-(4-methoxypiperidin-1-yl)-2,5-dimethyl-4-oxo-5,6,7,8-tetrahydroquinazolin-3(4H)-yl)ethoxy)phenyl)-5-methylthieno[3,2-b]pyridine-3-carboxylic acid] | 
< 0.1 | < 5 | Cc1cc(-c2cc(Cl)ccc2OCCn2c(C)nc3c(c2=O)C[C@](C)(N2C[C@@H]4CC(F)(F)C[C@@H]4C2)CC3)c2scc(C(=O)O)c2n1 (stereo in doubt) [Compound 566] | 
< 0.1 | < 5 | Cc1cc(-c2cc(Cl)ccc2OCCn2c(C)nc3c(c2=O)C[C@@](C)(N2C[C@@H]4CC(F)(F)C[C@@H]4C2)CC3)c2scc(C(=O)O)c2n1 (stereo in doubt) [Compound 567] | 
< 0.1 | 5 to 20 | COc1cc(CN(CC(F)F)C2CCc3nc(C)n(CCOc4ccc(Cl)cc4-c4cc(C)nc5c(C(=O)O)csc45)c(=O)c3C2)ccn1 (stereo not shown) [Compound 112, 7-[2-[2-[6-[2,2-bis(fluorenyl)ethyl-[(2-methoxy-4-pyridyl)methyl]amino]-2-methyl-4-oxidanylidene-5,6,7,8-tetrahydroquinazolin-3-yl]ethoxy]-5-chloranyl-phenyl]-5-methyl-thieno[3,2-b]pyridine-3-carboxylic acid] | 
< 0.1 | < 5 | COC1CCN(C2(C)CCc3nc(C)n(CCOc4ccc(Cl)cc4-c4cc(C)nc5c(C(=O)O)csc45)c(=O)c3C2)CC1 (stereo not shown) [Compound 114] | 
< 0.1 | 5 to 20 | CCS(=O)(=O)C1CCN(C2CCc3nc(C)n(CCOc4ccc(Cl)cc4-c4cc(C)nc5c(C(=O)O)csc45)c(=O)c3C2)CC1 (stereo not shown) [Compound 115] | 
0.5 to 5 | > 20 | Cc1nc2c(c(=O)n1CCOc1ccc(Cl)cc1-c1ccnc(CC(=O)O)c1)CC(N(C)CC1CC(F)(F)C1)CC2 (stereo not shown) [Compound 118] | 
< 0.1 | 5 to 20 | Cc1cc(-c2cc(Cl)ccc2OCCn2c(C)nc3c(c2=O)CC(N2CC(F)(F)C(F)(F)C2)CC3)c2scc(C(=O)O)c2n1 (stereo not shown) [Compound 119] | 
0.5 to 5 | > 20 | Cc1cc(-c2cc(Cl)ccc2OCCn2c(C)nc3c(c2=O)C(C)(C)C(N)CC3)c2scc(C(=O)O)c2n1 (stereo not shown) [Compound 123, 7-(2-(2-(6-amino-2,5,5-trimethyl-4-oxo-5,6,7,8-tetrahydroquinazolin-3(4H)-yl)ethoxy)-5-chlorophenyl)-5-methylthieno[3,2-b]pyridine-3-carboxylic acid] | 
< 0.1 | < 5 | Cc1cc(-c2cc(Cl)ccc2OCCn2c(C)nc3c(c2=O)CC(N2CCC(C(F)F)CC2)CC3)c2scc(C(=O)O)c2n1 (stereo not shown) [Compound 124] | 
< 0.1 | < 5 | [2H]C([2H])([2H])N(Cc1ccnc(OC)c1)C1CCc2nc(C)n(CCOc3ccc(Cl)cc3-c3cc(C)nc4c(C(=O)O)csc34)c(=O)c2C1 (stereo not shown) [Compound 125, 7-(5-chloro-2-(2-(6-(((2-methoxypyridin-4-yl)methyl)(methyl-d3)amino)-2-methyl-4-oxo-5,6,7,8-tetrahydroquinazolin-3(4H)-yl)ethoxy)phenyl)-5-methylthieno[3,2-b]pyridine-3-carboxylic acid] | 
< 0.1 | < 5 | Cc1cc(-c2cc(Cl)ccc2OCCn2c(C)nc3c(c2=O)CC(N2CCC(c4cccc(C(F)(F)F)c4)CC2)CC3)c2scc(C(=O)O)c2n1 (stereo not shown) [Compound 127] | 
< 0.1 | < 5 | CCN(Cc1ccnc(OC)c1)C1CCc2nc(C)n(CCOc3ccc(Cl)cc3-c3cc(C)nc4c(C(=O)O)csc34)c(=O)c2C1 (stereo not shown) [Compound 129] | 
< 0.1 | < 5 | Cc1cc(-c2cc(Cl)ccc2OCCn2c(C)nc3c(c2=O)CC(N2CCC(c4cccs4)CC2)CC3)c2scc(C(=O)O)c2n1 (stereo not shown) [Compound 130] | 
< 0.1 | < 5 | Cc1cc(-c2cc(Cl)ccc2OCCn2c(C)nc3c(c2=O)CC(N2CCC(c4ccc(F)cc4)CC2)CC3)c2scc(C(=O)O)c2n1 (stereo not shown) [Compound 132] | 
0.1 to 0.5 | 5 to 20 | COC1CCN(C2CCc3nc(C)n(CCOc4ccc(Cl)cc4-c4cc(C)nc5c(C(N)=O)csc45)c(=O)c3C2)CC1 (stereo not shown) [Compound 133] | 
< 0.1 | < 5 | COC1(C)CCN(C2CCc3nc(C)n(CCOc4ccc(Cl)cc4-c4cc(C)nc5c(C(=O)O)csc45)c(=O)c3C2)CC1 (stereo not shown) [Compound 134] | 
< 0.1 | > 20 | Cc1cc(-c2cc(Cl)ccc2OCCn2c(C)nc3c(c2=O)CC(N2CCc4nc[nH]c4C2)CC3)c2scc(C(=O)O)c2n1 (stereo not shown) [Compound 155] | 
< 0.1 | < 5 | Cc1cc(-c2cc(Cl)ccc2OCCn2c(C)nc3c(c2=O)CC(N)CC3)c2scc(C(=O)O)c2n1 (stereo not shown) [Compound 411] | 
< 0.1 | < 5 | Cc1cc(-c2cc(Cl)ccc2OCCn2c(C)nc3c(c2=O)CC(C)(N2CCC(OC(F)(F)F)CC2)CC3)c2scc(C(=O)O)c2n1 (stereo not shown) [Compound 536] | 

Structure (SMILES) | IC50 (human eIF4E protein) [µM] | IC50 ([1]; Homo sapiens, COLO 205, 72 h) [µM] | further results
COC1CCc2nc(C)n(CCOc3ccc(Cl)cc3-c3cc(C)nc4c(C(=O)O)csc34)c(=O)c2C1 (single isomer, unassigned) [Compound 5] | 0.1 to 0.5 |  | IC50 [1]: 5 to 20 µM; IC50 [2]: > 5 µM
COC1CCc2nc(C)n(CCOc3ccc(Cl)cc3-c3cc(C)nc4c(C(=O)O)csc34)c(=O)c2C1 (single isomer, unassigned) [Compound 6] | 0.1 to 0.5 |  | IC50 ([1]; Homo sapiens): 5 to 20 µM; IC50 [2]: 1 to 5 µM
Cc1cc(-c2cc(Cl)ccc2OCCn2c(C)nc3c(c2=O)CC(N2C4CCC2CC(F)(F)C4)CC3)c2scc(C(=O)O)c2n1 (stereo not shown) [Compound 126] | < 0.1 | < 5 | 
